Measured values reported in PubChem BioAssay AID248 (DTP/NCI, 2004).
Where “and” joins values, the source holds several entries; their conditions need not be identical. Identical values can stand only once. Toxic doses and inconclusive results are not listed. Cut-off read from the data, not from the text of the source: active = T/C of 150% or more; inactive = T/C below 125%.

System: L1210 leukemia ip in BDF1 mice, survival T/C
Assay: NCI In Vivo Anticancer Drug Screen. Data for tumor model L1210 Leukemia (intraperitoneal) in B6D2F1 (BDF1) mice
Conditions: endpoint: mean survival time, higher = longer survival
In short: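 Survival endpoint. Drug-treated group vs vehicle group, expressed as T divided by C. Tumor passaged by transplantation.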

[1] = dose: 50.0 mg/kg/injection, schedule: Q01DX001 (ip), vehicle: saline
[2] = dose: 100.0 mg/kg/injection, schedule: Q01DX001 (ip), vehicle: saline
[3] = dose: 200.0 mg/kg/injection, schedule: Q01DX001 (ip), vehicle: saline
[4] = dose: 400.0 mg/kg/injection, schedule: Q01DX001 (ip), vehicle: saline
[5] = dose: 50.0 mg/kg/injection, schedule: Q01DX009 (ip), vehicle: saline with Tween-80
[6] = dose: 100.0 mg/kg/injection, schedule: Q01DX009 (ip), vehicle: saline with Tween-80

Measured: T/C

Cc1ccc(S(=O)(=O)Nc2c(N)nc(N)nc2-c2ccccc2)cc1
inactive: dose: 80.0 mg/kg/injection, schedule: Q01DX001 (ip), vehicle: Klucel (hydroxypropylcellulose) (HPC) 96 % of control | dose: 160.0 mg/kg/injection, schedule: Q01DX001 (ip), vehicle: Klucel (hydroxypropylcellulose) (HPC) 94 % of control | dose: 320.0 mg/kg/injection, schedule: Q01DX001 (ip), vehicle: Klucel (hydroxypropylcellulose) (HPC) 103 % of control

CC(=O)N(c1ccccc1)C(C(=O)c1ccccc1)c1ccccc1 (stereo not drawn)
inactive: [1] 98 % of control | [2] 102 % of control | [3] 108 % of control | [4] 98 % of control

CCCCCCCCCCCC[N+](C)(C)Cc1ccccc1
inactive: dose: 1.56 mg/kg/injection, schedule: Q01DX009 (ip), vehicle: saline 106 % of control | dose: 3.12 mg/kg/injection, schedule: Q01DX009 (ip), vehicle: saline 111 % of control | dose: 3.12 mg/kg/injection, schedule: Q04DX003 (ip), vehicle: saline 98 % of control | dose: 6.25 mg/kg/injection, schedule: Q04DX003 (ip), vehicle: saline 104 % of control | dose: 12.5 mg/kg/injection, schedule: Q01DX001 (ip), vehicle: saline 103 % of control

Cc1cc(C(N)=O)c(C#N)c(=O)[nH]1
inactive: dose: 75.0 mg/kg/injection, schedule: Q01DX001 (ip), vehicle: steriod suspending solution 94 % of control | dose: 150.0 mg/kg/injection, schedule: Q01DX001 (ip), vehicle: steriod suspending solution 95 % of control

Cc1[nH]c2ccccc2c1C(=O)Cc1ccc(Cl)cc1Cl
inactive: [1] 98 % of control | [2] 101 % of control | [3] 101 % of control | [4] 95 % of control

O=C(NC1CCCCC1)Oc1ccc2ccccc2c1
inactive: dose: 100.0 mg/kg/injection, schedule: Q04DX002 (ip), vehicle: Klucel (hydroxypropylcellulose) (HPC) 102 % of control | dose: 200.0 mg/kg/injection, schedule: Q04DX002 (ip), vehicle: Klucel (hydroxypropylcellulose) (HPC) 100 % of control | dose: 400.0 mg/kg/injection, schedule: Q04DX002 (ip), vehicle: Klucel (hydroxypropylcellulose) (HPC) 107 % of control

O=C1C=CC(=O)N1c1ccc(F)cc1 (tested in a mixture with another compound)
inactive: dose: 100.0 mg/kg/injection, schedule: Q04DX003 (ip), vehicle: acetone 86 % of control | dose: 100.0 mg/kg/injection, schedule: Q04DX003 (ip), vehicle: other 97 % of control | dose: 200.0 mg/kg/injection, schedule: Q04DX003 (ip), vehicle: acetone 86 % of control | dose: 200.0 mg/kg/injection, schedule: Q04DX003 (ip), vehicle: other 86 % of control | dose: 400.0 mg/kg/injection, schedule: Q04DX003 (ip), vehicle: other 87 % of control and 95 % of control

Cc1cc(N=Nc2cccc([N+](=O)[O-])c2)cc(C(=O)O)c1O
inactive: dose: 6.25 mg/kg/injection, schedule: Q01DX001 (ip), vehicle: Klucel (hydroxypropylcellulose) (HPC) 102 % of control | dose: 12.5 mg/kg/injection, schedule: Q01DX001 (ip), vehicle: Klucel (hydroxypropylcellulose) (HPC) 94 % of control | dose: 25.0 mg/kg/injection, schedule: Q01DX001 (ip), vehicle: Klucel (hydroxypropylcellulose) (HPC) 89 % of control

CCCC(CC)C(C(=O)OCC)C1=NC(C)(C)CC(C)O1 (stereo not drawn)
inactive: dose: 100.0 mg/kg/injection, schedule: Q01DX009 (ip), vehicle: saline sonified 98 % of control | dose: 200.0 mg/kg/injection, schedule: Q01DX009 (ip), vehicle: saline sonified 104 % of control | dose: 400.0 mg/kg/injection, schedule: Q01DX009 (ip), vehicle: saline sonified 93 % of control

CC(=O)Oc1c(I)cc(I)cc1C(=O)Nc1ccc(Cl)cc1
inactive: [5] 94 % of control | [6] 87 % of control

CCc1ccc(N=Nc2ccc(N(C)C)cc2)cc1
inactive: dose: 50.0 mg/kg/injection, schedule: Q04DX003 (ip), vehicle: Klucel (hydroxypropylcellulose) (HPC) 93 % of control | dose: 100.0 mg/kg/injection, schedule: Q01DX001 (ip), vehicle: carboxymethylcellulose (CMC) 110 % of control | dose: 100.0 mg/kg/injection, schedule: Q04DX003 (ip), vehicle: Klucel (hydroxypropylcellulose) (HPC) 96 % of control | dose: 200.0 mg/kg/injection, schedule: Q01DX001 (ip), vehicle: carboxymethylcellulose (CMC) 89 % of control | dose: 200.0 mg/kg/injection, schedule: Q04DX003 (ip), vehicle: Klucel (hydroxypropylcellulose) (HPC) 96 % of control | dose: 400.0 mg/kg/injection, schedule: Q01DX001 (ip), vehicle: carboxymethylcellulose (CMC) 101 % of control

COc1ccc(CCOS(=O)(=O)c2ccc(C)cc2)cc1
inactive: [6] 100 % of control | dose: 200.0 mg/kg/injection, schedule: Q01DX009 (ip), vehicle: saline with Tween-80 97 % of control | dose: 400.0 mg/kg/injection, schedule: Q01DX009 (ip), vehicle: saline with Tween-80 100 % of control

Cc1nccc2c1[nH]c1cc(N)ccc12.[Cl][Sn][Cl]
inactive: dose: 5.0 mg/kg/injection, schedule: Q04DX003 (ip), vehicle: saline with Tween-80 102 % of control | dose: 10.0 mg/kg/injection, schedule: Q04DX003 (ip), vehicle: saline with Tween-80 94 % of control | dose: 20.0 mg/kg/injection, schedule: Q04DX003 (ip), vehicle: saline with Tween-80 96 % of control

ClCC/C=C\C=C\CCCl
inactive: dose: 75.0 mg/kg/injection, schedule: Q01DX001 (ip), vehicle: saline 93 % of control | dose: 75.0 mg/kg/injection, schedule: Q04DX003 (ip), vehicle: saline 107 % of control | dose: 150.0 mg/kg/injection, schedule: Q01DX001 (ip), vehicle: saline 105 % of control | dose: 150.0 mg/kg/injection, schedule: Q04DX003 (ip), vehicle: saline 111 % of control | dose: 300.0 mg/kg/injection, schedule: Q01DX001 (ip), vehicle: saline 93 % of control | dose: 300.0 mg/kg/injection, schedule: Q04DX003 (ip), vehicle: saline 107 % of control

CC(C)OC1=CC2C(=CCC3C2(C)C(=O)CC2(C)C(C(C)(O)C(=O)/C=C/C(C)(C)O)C(O)CC32C)C(C)(C)C1=O (stereo not drawn)
inactive: dose: 37.5 mg/kg/injection, schedule: Q04DX002 (ip), vehicle: saline with Tween-80 101 % of control | dose: 75.0 mg/kg/injection, schedule: Q04DX002 (ip), vehicle: saline with Tween-80 93 % of control | dose: 150.0 mg/kg/injection, schedule: Q04DX002 (ip), vehicle: saline with Tween-80 108 % of control

CCN(CC)CCCC(C)Nc1c2ccc(Cl)cc2nc2ccc(F)cc12 (stereo not drawn)
inactive: dose: 44.0 mg/kg/injection, schedule: Q01DX Z (ip), vehicle: saline 111 % of control | dose: 66.0 mg/kg/injection, schedule: Q01DX Z (ip), vehicle: saline 117 % of control | dose: 100.0 mg/kg/injection, schedule: Q01DX Z (ip), vehicle: saline 117 % of control

CCCCSc1cc(C)nc2ccccc12
inactive: dose: 25.0 mg/kg/injection, schedule: Q01DX009 (ip), vehicle: saline with Tween-80 100 % of control | dose: 25.0 mg/kg/injection, schedule: Q04DX002 (ip), vehicle: saline with Tween-80 93 % of control | [5] 96 % of control | dose: 50.0 mg/kg/injection, schedule: Q04DX002 (ip), vehicle: saline with Tween-80 96 % of control | [6] 93 % of control | dose: 100.0 mg/kg/injection, schedule: Q04DX002 (ip), vehicle: saline with Tween-80 93 % of control

CCCCC(/C=C/c1ccc2ccccc2n1)CC (stereo not drawn)
inactive: [1] 103 % of control | [2] 113 % of control

O=C(O)CNC(=O)c1ccccc1C(=O)NCC(=O)OCc1ccccc1
inactive: [1] 94 % of control | [2] 91 % of control | [3] 91 % of control | [4] 97 % of control

CC(C)c1ccc(/C=N/N=C(N)N)cc1
inactive: dose: 3.8 mg/kg/injection, schedule: Q01DX Z (ip), vehicle: other 100 % of control | dose: 7.5 mg/kg/injection, schedule: Q01DX Z (ip), vehicle: other 102 % of control | dose: 15.0 mg/kg/injection, schedule: Q01DX Z (ip), vehicle: other 94 % of control

O=C(O)CNc1cc(S(=O)(=O)O)cc2cc(S(=O)(=O)O)c(N=Nc3cc(S(=O)(=O)O)cc4cc(S(=O)(=O)O)cc(O)c34)c(O)c12
inactive: dose: 100.0 mg/kg/injection, schedule: Q01DX001 (ip), vehicle: other 101 % of control | dose: 200.0 mg/kg/injection, schedule: Q01DX001 (ip), vehicle: other 104 % of control

O=NN1CCCNCC1
inactive: dose: 25.0 mg/kg/injection, schedule: Q01DX009 (ip), vehicle: water 104 % of control | dose: 50.0 mg/kg/injection, schedule: Q01DX009 (ip), vehicle: water 111 % of control | dose: 100.0 mg/kg/injection, schedule: Q01DX009 (ip), vehicle: water 106 % of control | dose: 200.0 mg/kg/injection, schedule: Q01DX009 (ip), vehicle: water 101 % of control | dose: 400.0 mg/kg/injection, schedule: Q01DX009 (ip), vehicle: water 112 % of control

CCOC(=O)CCCCC(N)=O
inactive: [2] 104 % of control | [3] 102 % of control | [4] 101 % of control
